From patent publication US6479435B1, “Diaryl ethers and processes for their preparation and herbicidal and desiccant compositions containing them” (ISK Americas Incorporated, priority 1997, dated 2002)

Tests used:
Type in all cases: in vivo
[1] = system: lambsquarters (Chenopodium album, CHEAL); assay: Post-emerge greenhouse herbicide test, phytotoxicity rating; conditions: 14 days after application
Summary of the method: (§1)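 Compounds in acetone with 0.25% v/v non-ionic surfactant were track-sprayed at 187 l/ha over plants at the 2-3 leaf stage, at 63 to 1000 g ai/ha. Pots were bottom-watered. Injury was scored visually 14 days later on a 0-100 scale, where 0 is no damage and 100 is complete plant death.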

[2] = system: large crabgrass (Digitaria sanguinalis, DIGSA); assay: as above; conditions: 14 days after application
Summary of the method: as §1

[3] = system: sicklepod (Cassia obtusifolia, CASOB); assay: as above; conditions: 14 days after application
Summary of the method: as §1

[4] = system: green foxtail (Setaria viridis, SETVI); assay: as above; conditions: 14 days after application
Summary of the method: as §1

[5] = system: ivyleaf morningglory (Ipomoea hederacea, IPOHE); assay: as above; conditions: 14 days after application
Summary of the method: as §1

[6] = system: velvetleaf (Abutilon theophrasti, ABUTH); assay: as above; conditions: 14 days after application
Summary of the method: as §1

[7] = system: redroot pigweed (Amaranthus retroflexus, AMARE); assay: as above; conditions: 14 days after application
Summary of the method: as §1

[8] = system: Johnsongrass (Sorghum halepense, SORHA); assay: as above; conditions: 14 days after application
Summary of the method: as §1

[9] = system: barnyardgrass (Echinochloa crusgalli, ECHCG); assay: as above; conditions: 14 days after application
Summary of the method: as §1

[10] = system: lambsquarters (Chenopodium album, CHEAL); assay: Pre-emerge greenhouse herbicide test, phytotoxicity rating; conditions: 14 days after application, rating scale 0-100
Summary of the method: (§2)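 Seeds sown in sandy loam mix one day before track-sprayer application of compounds in acetone at 125–1000 g ai/ha (187 l/ha), then surface-watered to incorporate and bottom-watered. Visual rating 14 days after application on a 0–100 scale (0 = no damage, 100 = all plants dead).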

[11] = system: large crabgrass (Digitaria sanguinalis, DIGSA); assay: as above; conditions: 14 days after application, rating scale 0-100
Summary of the method: as §2

[12] = system: sicklepod (Cassia obtusifolia, CASOB); assay: as above; conditions: 14 days after application, rating scale 0-100
Summary of the method: as §2

[13] = system: green foxtail (Setaria viridis, SETVI); assay: as above; conditions: 14 days after application, rating scale 0-100
Summary of the method: as §2

[14] = system: ivyleaf morningglory (Ipomoea hederacea, IPOHE); assay: as above; conditions: 14 days after application, rating scale 0-100
Summary of the method: as §2

[15] = system: velvetleaf (Abutilon theophrasti, ABUTH); assay: as above; conditions: 14 days after application, rating scale 0-100
Summary of the method: as §2

[16] = system: redroot pigweed (Amaranthus retroflexus, AMARE); assay: as above; conditions: 14 days after application, rating scale 0-100
Summary of the method: as §2

[17] = system: Johnsongrass (Sorghum halepense, SORHA); assay: as above; conditions: 14 days after application, rating scale 0-100
Summary of the method: as §2

[18] = system: common ragweed (Ambrosia artemisiifolia L., AMBEL); assay: as above; conditions: 14 days after application, rating scale 0-100
Summary of the method: as §2

[19] = system: barnyardgrass (Echinochloa crusgalli, ECHCG); assay: as above; conditions: 14 days after application, rating scale 0-100
Summary of the method: as §2

[20] = system: common ragweed (Ambrosia artemisiifolia L., AMBEL); assay: Post-emerge greenhouse herbicide test, phytotoxicity rating; conditions: 14 days after application
From the text: A standard greenhouse herbicide activity screening system was used to evaluate the herbicidal efficacy and crop safety of these test compounds. Six broadleaf weed species including redroot pigweed (Amaranthus retroflexus, AMARE), velvetleaf (Abutilon theophrasti, ABUTH), sicklepod (Cassia obtusifolia, CASOB), ivyleaf morningglory (Ipomoea hederacea, IPOHE), lambsquarters (Chenopodium album, CHEAL) and common ragweed (Ambrosia artemisiifolia L., AMBEL) were used as test species. Four grass weed species including green foxtail (Setaria viridis, SETVI), barnyardgrass (Echinochloa crusgalli, ECHCG), Johnsongrass (Sorghum halepense, SORHA), and large crabgrass (Digitaria sanguinalis, DIGSA) were also used. In addition, three crop species, field corn (Zea mays L., var. Dekalb 535, CORN), soybean (Glycine max L., var. Pella 86, SOY), and upland rice (Oryza sp., var.Tebonnet, RICE) were included.
All test compounds were dissolved in acetone and applied to the test units in a volume of 187 l/ha. […] Plants were arranged on a shelf so that the top of the canopy (post-emerge) or top of the soil surface (pre-emerge) was 40-45 cm below the nozzle. Pressurized air was used to force the test solution through the nozzle as it was mechanically advanced (via electrically driven chain drive) over the top of all test plants/pots. This application simulates a typical commercial field herbicide application.
In the post-emerge test, a commercial non-ionic surfactant was also included (0.25% v/v) to enhance wetting of the leaf surfaces Qf target plants at rates ranging from 63 g ai/ha to 1000 g ai/ha. For post-emerge tests, seeds were planted 8-21 days prior to the test to allow emergence and good foliage development prior to application of the test substances. At the time of the post-emerge application, plants of all species were usually at the 2-3 leaf stage of development. Post-emerge test units were always bottom-watered.
At 14 days after application of the test materials, phytotoxicity ratings were recorded. A rating scale of 0-100 was used as previously described in Research Methods in Weed Science, 2nd edition, B. Truelove, Ed., Southern Weed Science Society, Auburn University, Auburn, Ala., 1977. Briefly, “0” corresponds to no damage and “100” corresponds to complete death of all plants in the test unit. This scale was used both to determine efficacy against weed species and damage to crop species. Herbicide activity data for various compounds of this invention, which are shown by compound number in Tables 1-9, are shown in Tables 13 and 14.

SMILES	CHEAL phytotoxicity rating (0-100) ([1]; 63 g al/ha)	CHEAL phytotoxicity rating (0-100) ([1]; 500 g al/ha)	DIGSA phytotoxicity rating (0-100) ([2]; 63 g al/ha)	DIGSA phytotoxicity rating (0-100) ([2]; 500 g al/ha)	CASOB phytotoxicity rating (0-100) ([3]; 63 g al/ha)	CASOB phytotoxicity rating (0-100) ([3]; 500 g al/ha)	SETVI phytotoxicity rating (0-100) ([4]; 63 g al/ha)	SETVI phytotoxicity rating (0-100) ([4]; 500 g al/ha)	IPOHE phytotoxicity rating (0-100) ([5]; 63 g al/ha)	IPOHE phytotoxicity rating (0-100) ([5]; 500 g al/ha)	ABUTH phytotoxicity rating (0-100) ([6]; 63 g al/ha)	ABUTH phytotoxicity rating (0-100) ([6]; 500 g al/ha)	AMARE phytotoxicity rating (0-100) ([7]; 63 g al/ha)	AMARE phytotoxicity rating (0-100) ([7]; 500 g al/ha)	SORHA phytotoxicity rating (0-100) ([8]; 500 g al/ha)	ECHCG phytotoxicity rating (0-100) ([9]; 63 g al/ha)	ECHCG phytotoxicity rating (0-100) ([9]; 500 g al/ha)	phytotoxicity rating CHEAL ([10]; 125 g ai/ha)	phytotoxicity rating CHEAL ([10]; 500 g ai/ha)	phytotoxicity rating DIGSA ([11]; 125 g ai/ha)	further results
COc1nc(OC)nc(Oc2cc(-c3nc(C)n(C(F)F)c3Cl)c(F)cc2Cl)n1 [Compound 2-4, 5-chloro-4-(4-chloro-2-fluoro-5-(4,6-dimethoxy-2-triazinyloxy)phenyl)-1-difluoromethyl-2-methylimidazole]	0	70	0	10	0	0	0	50	0	75	0	80	0	90	50	0	0	70	100	0	SORHA phytotoxicity rating (0-100) ([8]; 63 g al/ha): 0; phytotoxicity rating DIGSA ([11]; 500 g ai/ha): 50; phytotoxicity rating CASOB ([12]; 125 g ai/ha): 0; phytotoxicity rating CASOB ([12]; 500 g ai/ha): 10; phytotoxicity rating SETVI ([13]; 125 g ai/ha): 20; phytotoxicity rating SETVI ([13]; 500 g ai/ha): 95; phytotoxicity rating IPOHE ([14]; 125 g ai/ha): 10; phytotoxicity rating IPOHE ([14]; 500 g ai/ha): 0; phytotoxicity rating ABUTH ([15]; 125 g ai/ha): 10; phytotoxicity rating ABUTH ([15]; 500 g ai/ha): 70; phytotoxicity rating AMARE ([16]; 125 g ai/ha): 70; phytotoxicity rating AMARE ([16]; 500 g ai/ha): 100; phytotoxicity rating SORHA ([17]; 125 g ai/ha): 0; phytotoxicity rating SORHA ([17]; 500 g ai/ha): 40; phytotoxicity rating AMBEL ([18]; 125 g ai/ha): 10; phytotoxicity rating AMBEL ([18]; 500 g ai/ha): 0; phytotoxicity rating ECHCG ([19]; 125 g ai/ha): 0; phytotoxicity rating ECHCG ([19]; 500 g ai/ha): 0; AMBEL phytotoxicity rating (0-100) ([20]; 63 g al/ha): 0; AMBEL phytotoxicity rating (0-100) ([20]; 500 g al/ha): 0
O=c1n(CCCF)nnn1-c1cc(Oc2ncccn2)c(Cl)cc1F [Compound 6-10, 1-[4-chloro-2-fluoro-5-(2-pyrimidyloxy)phenyl]-4-(3-fluoropropyl)-1,4-dihydro-5-oxo-5H-tetrazole]	90	100	50	100	30	100	30	100	100	100	100	100	90	100	100	30	100	100	100	100	SORHA phytotoxicity rating (0-100) ([8]; 63 g al/ha): 0; phytotoxicity rating DIGSA ([11]; 500 g ai/ha): 100; phytotoxicity rating CASOB ([12]; 125 g ai/ha): 40; phytotoxicity rating CASOB ([12]; 500 g ai/ha): 100; phytotoxicity rating SETVI ([13]; 125 g ai/ha): 100; phytotoxicity rating SETVI ([13]; 500 g ai/ha): 100; phytotoxicity rating IPOHE ([14]; 125 g ai/ha): 100; phytotoxicity rating IPOHE ([14]; 500 g ai/ha): 100; phytotoxicity rating ABUTH ([15]; 125 g ai/ha): 100; phytotoxicity rating ABUTH ([15]; 500 g ai/ha): 100; phytotoxicity rating AMARE ([16]; 125 g ai/ha): 100; phytotoxicity rating AMARE ([16]; 500 g ai/ha): 100; phytotoxicity rating SORHA ([17]; 125 g ai/ha): 100; phytotoxicity rating SORHA ([17]; 500 g ai/ha): 100; phytotoxicity rating AMBEL ([18]; 125 g ai/ha): 100; phytotoxicity rating AMBEL ([18]; 500 g ai/ha): 100; phytotoxicity rating ECHCG ([19]; 125 g ai/ha): 100; phytotoxicity rating ECHCG ([19]; 500 g ai/ha): 100; AMBEL phytotoxicity rating (0-100) ([20]; 63 g al/ha): 30; AMBEL phytotoxicity rating (0-100) ([20]; 500 g al/ha): 100
O=c1sc(=Nc2cc(Oc3ncccc3C(F)(F)F)c(Cl)cc2F)n2n1CCCC2 [Compound 7-1, 9-[4-chloro-2-fluoro-5-(3-trifluoromethyl-2-pyridyloxy)phenylimino]-8-thia-1,6-diazabicyclo[4,3,0]nonane-7-one]	100	100	30	60	70	20	20	60	100	100	90	100	100	100	30	0	20	100	100	60	phytotoxicity rating DIGSA ([11]; 500 g ai/ha): 90; phytotoxicity rating CASOB ([12]; 125 g ai/ha): 50; phytotoxicity rating CASOB ([12]; 500 g ai/ha): 10; phytotoxicity rating SETVI ([13]; 125 g ai/ha): 90; phytotoxicity rating SETVI ([13]; 500 g ai/ha): 100; phytotoxicity rating IPOHE ([14]; 125 g ai/ha): 0; phytotoxicity rating IPOHE ([14]; 500 g ai/ha): 0; phytotoxicity rating ABUTH ([15]; 125 g ai/ha): 90; phytotoxicity rating ABUTH ([15]; 500 g ai/ha): 100; phytotoxicity rating AMARE ([16]; 125 g ai/ha): 100; phytotoxicity rating AMARE ([16]; 500 g ai/ha): 100; phytotoxicity rating SORHA ([17]; 125 g ai/ha): 0; phytotoxicity rating SORHA ([17]; 500 g ai/ha): 60; phytotoxicity rating AMBEL ([18]; 125 g ai/ha): 80; phytotoxicity rating AMBEL ([18]; 500 g ai/ha): 90; phytotoxicity rating ECHCG ([19]; 125 g ai/ha): 0; phytotoxicity rating ECHCG ([19]; 500 g ai/ha): 0; AMBEL phytotoxicity rating (0-100) ([20]; 63 g al/ha): 95; AMBEL phytotoxicity rating (0-100) ([20]; 500 g al/ha): 100
